Assay results published in US20240383908A1, “SYNTHESIS AND APPLICATION OF PHOSPHATASE DEGRADER” (HINOVA PHARMACEUTICALS INC., priority 2021, published 2024).

These compounds were tested against T1, SHP2 protein (Homo sapiens, UniProt Q06124) (assay: Degradation activity on SHP2 protein in MV-411 cells (Western blot, DC50)). Settings: MV411 cells, 24 hours, read-out: Degradation activity for differenct cell lines MV411 (DC50).
T1 sequence (Q06124 1-593): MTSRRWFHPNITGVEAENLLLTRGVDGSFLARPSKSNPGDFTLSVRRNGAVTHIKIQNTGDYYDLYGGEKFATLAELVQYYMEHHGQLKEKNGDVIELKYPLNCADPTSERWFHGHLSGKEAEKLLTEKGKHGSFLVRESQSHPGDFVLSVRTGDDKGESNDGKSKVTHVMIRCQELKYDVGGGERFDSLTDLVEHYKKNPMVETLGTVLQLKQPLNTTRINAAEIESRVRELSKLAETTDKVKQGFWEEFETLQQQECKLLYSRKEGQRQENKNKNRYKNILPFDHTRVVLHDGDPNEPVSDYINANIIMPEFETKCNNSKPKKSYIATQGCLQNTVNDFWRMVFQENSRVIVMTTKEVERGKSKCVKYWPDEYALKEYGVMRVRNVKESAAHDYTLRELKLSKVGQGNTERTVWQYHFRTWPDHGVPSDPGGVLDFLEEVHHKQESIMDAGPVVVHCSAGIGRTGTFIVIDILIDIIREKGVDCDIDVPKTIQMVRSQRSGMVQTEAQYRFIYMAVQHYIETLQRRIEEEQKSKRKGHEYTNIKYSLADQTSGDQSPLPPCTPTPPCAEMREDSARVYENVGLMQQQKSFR
Format: cell-based
Parameters: endogenous in cells
How it was run: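 Western blot of SHP2 (GAPDH loading control, 30 μg protein/lane) in lysates of MV-411 cells exposed 24 h to final compound concentrations of 100, 10, 3, 1, 0.3 and 0.1 nM (0.1% DMSO). Degradation relative to DMSO set at 100%; DC50 derived by curve fitting.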

SMILES | DC50
Cc1ncsc1-c1ccc([C@H](C)NC(=O)[C@@H]2C[C@@H](O)CN2C(=O)[C@@H](NC(=O)CCCCCCCCCCN2CCC(C(=O)Nc3cccc(Sc4cnc(N5CCC(C)(N)CC5)cn4)c3)CC2)C(C)(C)C)cc1 [Compound 36] | > 1 µM
C[C@@H]1OCC2(CCN(c3cnc(Sc4cccc(NC(=O)COCCCCCN5CC6(CCN(c7ccc(C(=O)NCc8ccc9c(c8)CN(C8CCC(=O)NC8=O)C9=O)nn7)C6)C5)c4)cn3)CC2)[C@@H]1N (stereo partly shown) [Compound 121] | < 0.1 µM
CC(=O)NC1(C)CCN(c2cnc(Sc3cccc(NC(=O)CCCCCCCCN4CCN(c5ncc(C(=O)NCc6ccc7c(c6)CN(C6CCC(=O)NC6=O)C7=O)cn5)CC4)c3)cn2)CC1 (stereo not shown) [Compound 85] | > 1 µM
CC1(N)CCN(c2cnc(Sc3cccc(NC(=O)/C=C/C(=O)N4CCC5(CN(CCCCCCC(=O)NCc6ccc7c(c6)CN(C6CCC(=O)NC6=O)C7=O)C5)C4)c3)cn2)CC1 (stereo not shown) [Compound 151] | > 1 µM
CC1(N)CCN(c2cnc(Sc3cccc(NC(=O)CCCCCCCN4CC5(CCN(c6ccc(C(=O)NCc7ccc8c(c7)CN(C7CCC(=O)NC7=O)C8=O)nn6)C5)C4)c3)cn2)CC1 (stereo not shown) [Compound 106] | < 0.1 µM
Cc1ncsc1-c1ccc([C@H](C)NC(=O)[C@@H]2C[C@@H](O)CN2C(=O)[C@@H](NC(=O)c2ccc(N3CCC4(CN(CCCCC(=O)Nc5cccc(Sc6cnc(N7CCC(C)(N)CC7)cn6)c5)C4)C3)nn2)C(C)(C)C)cc1 [Compound 144] | 0.1 to 1 µM
CC1(N)CCN(c2cnc(Sc3cccc(NC(=O)CCCCCCCOC4CCN(c5ncc(C(=O)Nc6ccc7c(c6)C(=O)N(C6CCC(=O)NC6=O)C7)cn5)CC4)c3)cn2)CC1 (stereo not shown) [Compound 94] | > 1 µM
Cc1ncsc1-c1ccc([C@H](C)NC(=O)[C@@H]2C[C@@H](O)CN2C(=O)[C@@H](NC(=O)/C=C/C(=O)N2CC3(CN(CCCCCCCC(=O)Nc4cccc(Sc5cnc(N6CCC(C)(N)CC6)cn5)c4)C3)C2)C(C)(C)C)cc1 [Compound 115] | > 1 µM
CC1(N)CCN(c2cnc(Sc3cccc(NC(=O)CCCCCCN4CC5(CCN(C(=O)[C@@H]6C[C@H]6C(=O)NCc6ccc7c(c6)CN(C6CCC(=O)NC6=O)C7=O)C5)C4)c3)cn2)CC1 (stereo partly shown) [Compound 127] | 0.1 to 1 µM
NC1(CO)CCN(c2cnc(Sc3cccc(NC(=O)CCCCCC=C4CC5(CCN(c6ccc(C(=O)NCc7ccc8c(c7)CN(C7CCC(=O)NC7=O)C8=O)nn6)CC5)C4)c3)cn2)CC1 (stereo not shown) [Compound 210] | < 0.1 µM
CCC1(N)CCN(c2cnc(Sc3cccc(NC(=O)CCCCCCN4CC5(CCN(c6ccc(C(=O)N(C)Cc7ccc8c(c7)CN(C7CCC(=O)NC7=O)C8=O)nn6)C5)C4)c3)cn2)CC1 (stereo not shown) [Compound 162] | < 0.1 µM
CC1(N)CCN(c2cnc(Sc3cccc(NC(=O)CCCCCCN4CC5(CCN(c6ccc(C(NCc7ccc8c(c7)CN(C7CCC(=O)NC7=O)C8=O)C(F)(F)F)nn6)C5)C4)c3)cn2)CC1 (stereo not shown) [Compound 193, N-(3-((5-(4-amino-4-methylpyridin-1-yl)pyrazin-2-yl)thio)phenyl)-7-(6-(6-(1-(((2-(2,6-dioxopiperidin-3-yl)-1-oxoisoindol-5-yl)methyl)amino)-2,2,2-trifluoroethyl)pyridazin-3-yl)-2,6-diazaspiro[3.4]octan-2-yl)heptanamide] | > 1 µM
Cc1ncsc1-c1ccc([C@H](C)NC(=O)[C@@H]2C[C@@H](O)CN2C(=O)[C@@H](NC(=O)CCCCCCCCCCC(=O)Nc2cccc(Sc3cnc(N4CCC(C)(N)CC4)cn3)c2)C(C)(C)C)cc1 [Compound 49] | < 0.1 µM
NC1(CF)CCN(c2cnc(Sc3ccc(NC(=O)CCCCN4CC5(CCN(c6ncc(C(=O)NCc7ccc8c(c7)CN(C7CCC(=O)NC7=O)C8=O)cn6)C5)C4)cc3)cn2)CC1 (stereo not shown) [Compound 129] | > 1 µM
CN(Cc1ccc2c(c1)CN(C1CCC(=O)NC1=O)C2=O)C(=O)c1ccc(N2CCC3(CC(OCCCCCC(=O)Nc4cccc(Sc5cnc(N6CCC(C)(N)CC6)cn5)c4)C3)C2)nn1 (stereo not shown) [Compound 167] | < 0.1 µM
CC1(CN)CCN(c2cnc(Sc3cccc(NC(=O)CCC(=O)N4CCN(CCCCCCCCC(=O)Nc5cccc6c5CN(C5CCC(=O)NC5=O)C6=O)CC4)c3Cl)cn2)CC1 (stereo not shown) [Compound 13] | < 0.1 µM
CC1(N)CCN(c2cnc(Sc3cccc(NC(=O)CCCCN4CC5(CCN(c6ccc(C(=O)NCc7ccc8c(c7)CN(C7CCC(=O)NC7=O)C8=O)nn6)C5)C4)c3)cn2)CC1 (stereo not shown) [Compound 145] | < 0.1 µM
NC1(CO)CCN(c2cnc(Sc3cccc(NC(=O)CCCCCCN4CC5(CCN(c6ccc(C(=O)NCc7ccc8c(c7)CN(C7CCC(=O)NC7=O)C8=O)nn6)C5)C4)c3)cn2)C1 (stereo not shown) [Compound 198] | > 1 µM
Cc1ncsc1-c1ccc([C@H](C)NC(=O)[C@@H]2C[C@@H](O)CN2C(=O)[C@@H](NC(=O)CCCCCCCCN2CCN(C(=O)CCC(=O)Nc3cccc(Sc4cnc(N5CCC(C)(N)CC5)cn4)c3)CC2)C(C)(C)C)cc1 [Compound 34] | < 0.1 µM

SMILES | DC50
Cc1ncsc1-c1ccc([C@H](C)NC(=O)[C@@H]2C[C@@H](O)CN2C(=O)[C@@H](NC(=O)[C@@H]2C[C@H]2C(=O)N2CCC3(CN(CCCCCCC(=O)Nc4cccc(Sc5cnc(N6CCC(C)(N)CC6)cn5)c4)C3)C2)C(C)(C)C)cc1 [Compound 126] | 0.1 to 1 µM
CC1(N)CCN(c2cnc(Sc3cccc(NC(=O)CCCCCCN4CC5(CCN(C6CCC(C(=O)NCc7ccc8c(c7)CN(C7CCC(=O)NC7=O)C8=O)CC6)C5)C4)c3)cn2)CC1 (stereo not shown) [Compound 158, 4-(2-(7-((3-((5-(4-amino-4-methylpyridin-1-yl)pyrazin-2-yl)thio)phenyl)amino)-7-oxoheptyl)-2,6-diazaspiro[3.4]octan6-yl)-N-((2-(2,6-dioxopiperidin-3-yl)-1-oxoisoindol-5-yl)methyl)cyclohexane-1-formamide] | 0.1 to 1 µM
CC1(N)CCN(c2cnc(Sc3cccc(NC(=O)[C@H]4CCC[C@@H]4C(=O)N4CCN(CCCCCCCCC(=O)NCc5ccc6c(c5)CN(C5CCC(=O)NC5=O)C6=O)CC4)c3)cn2)CC1 (stereo partly shown) [Compound 25] | > 1 µM
CC1(N)CCN(c2cnc(Sc3cccc(NC(=O)CCCCCCCN4CC5(C4)CN(C(=O)/C=C/C(=O)NCc4ccc6c(c4)CN(C4CCC(=O)NC4=O)C6=O)C5)c3)cn2)CC1 (stereo not shown) [Compound 114] | > 1 µM
CC1(N)CCN(c2cnc(Sc3cccc(NC(=O)CCCN4CCN(c5ncc(C(=O)NCc6ccc7c(c6)CN(C6CCC(=O)NC6=O)C7=O)cn5)CC4)c3)cn2)CC1 (stereo not shown) [Compound 83] | > 1 µM
CC1(CN)CCN(c2cnc(Sc3ccc(NC(=O)COCCOCCOCCOCC(=O)Nc4ccc5c(c4)C(=O)N(C4CCC(=O)NC4=O)C5)cc3Cl)cn2)CC1 (stereo not shown) [Compound 11] | > 1 µM
Cc1ncsc1-c1ccc([C@H](C)NC(=O)[C@@H]2C[C@@H](O)CN2C(=O)[C@@H](NC(=O)COCCOCCOCCOCC(=O)Nc2cccc(Sc3cnc(N4CCC(C)(N)CC4)cn3)c2)C(C)(C)C)cc1 [Compound 12] | < 0.1 µM
CC1(C(N)=O)CCN(c2cnc(Sc3cccc(NC(=O)CCCCCCCCN4CCN(c5ncc(C(=O)NCc6cccc7c6CN(C6CCC(=O)NC6=O)C7=O)cn5)CC4)c3)cn2)CC1 (stereo not shown) [Compound 61] | > 1 µM
CC1(N)CCN(c2cnc(Sc3cccc(NC(=O)CCCCCCCCCC(=O)NCc4ccc5c(c4)CN(C4CCC(=O)NC4=O)C5=O)c3)cn2)CC1 (stereo not shown) [Compound 57] | > 1 µM
Cc1ncsc1-c1ccc([C@H](C)NC(=O)[C@@H]2C[C@@H](O)CN2C(=O)[C@@H](NC(=O)CCCCCCCCN2CCN(C(=O)[C@H]3CCC[C@@H]3C(=O)Nc3cccc(Sc4cnc(N5CCC(C)(N)CC5)cn4)c3)CC2)C(C)(C)C)cc1 [Compound 28] | < 0.1 µM
CC1(N)CCN(c2cnc(Sc3cccc(NC(=O)C4CCN(CCCCCCCCCCC(=O)NCc5ccc6c(c5)CN(C5CCC(=O)NC5=O)C6=O)CC4)c3)cn2)CC1 (stereo not shown) [Compound 37] | > 1 µM
NC1CN(c2cnc(Sc3cccc(NC(=O)CCCCCCN4CC5(CCN(c6ccc(C(=O)NCc7ccc8c(c7)CN(C7CCC(=O)NC7=O)C8=O)nn6)C5)C4)c3)cn2)CC1O (stereo not shown) [Compound 206] | > 1 µM
CC1(N)CCN(c2cnc(Sc3cccc(NC(=O)CCN4CCN(Cc5ccc(COc6cccc7c6CN(C6CCC(=O)NC6=O)C7=O)cc5)CC4)c3)cn2)CC1 (stereo not shown) [Compound 84] | > 1 µM
Cc1ncsc1-c1ccc([C@H](C)NC(=O)[C@@H]2C[C@@H](O)CN2C(=O)[C@@H](NC(=O)c2cnc(N3CCN(CCOCCOCC(=O)Nc4cccc(Sc5cnc(N6CCC(C)(N)CC6)cn5)c4)CC3)nc2)C(C)(C)C)cc1 [Compound 66] | < 0.1 µM
Cc1ncsc1-c1ccc([C@H](C)NC(=O)[C@@H]2C[C@@H](O)CN2C(=O)[C@@H](NC(=O)CCCCCCCCCCCCCCC(=O)Nc2cccc(Sc3cnc(N4CCC(C)(N)CC4)cn3)c2)C(C)(C)C)cc1 [Compound 51] | < 0.1 µM
CC1(N)CCN(c2cnc(Sc3cccc(NC(=O)CCC(=O)N4CCN(CCCCCCCCC(=O)NCc5ccc6c(c5)CN(C5CCC(=O)NC5=O)C6=O)CC4)c3)cn2)CC1 (stereo not shown) [Compound 27] | < 0.1 µM
CC1(N)CCN(c2cnc(Sc3cccc(NC(=O)CCCCCCCC(=O)NCc4ccc5c(c4)CN(C4CCC(=O)NC4=O)C5=O)c3)cn2)CC1 (stereo not shown) [Compound 2] | 0.1 to 1 µM
N[C@H]1CCN(c2cnc(Sc3cccc(NC(=O)CCCCCN4CC5(CCN(c6ccc(C(=O)NCc7ccc8c(c7)CN(C7CCC(=O)NC7=O)C8=O)nn6)C5)C4)c3)cn2)C[C@@H]1O (stereo partly shown) [Compound 196] | > 1 µM
